The values that follow come from publication PMC6896740, “Safety, tolerability, pharmacokinetics, and pharmacodynamics of PF-06650833, a selective interleukin-1 receptor-associated kinase 4 (IRAK4) inhibitor, in single and multiple ascending dose randomized phase 1 studies in healthy subjects” (Arthritis Research & Therapy, 2019).

For one data set, the system named is healthy adult subjects. Description: Study 2 (MAD) safety and tolerability: TEAEs, urine crystals. The data set is classed as in vivo. The procedure: Study 2 (B7921002; NCT02485769) was a 14-day, phase 1, randomized, double-blind, sponsor-open, placebo-controlled, sequential group, MAD study in healthy adult subjects (Fig. 1b).
Subjects were enrolled sequentially into seven cohorts. Within each cohort, eight subjects and two subjects were randomized to receive PF-06650833 and placebo, respectively. Doses for all cohorts were administered after a standard (not high-fat) meal. Multiple dosing regimens (once daily [QD] 24 h apart, twice daily [BID] 12 h apart, three times per day [TID] 8 h apart, and four times per day [QID] 6 h apart) were used to provide required total daily doses. In the final dosing scheme, multiple oral doses of PF-06650833 IR suspension formulations at 25, 100, 250, and 750 mg BID and 1000 mg QID were administered in cohorts 1–5. PF-06650833 IR 330 mg TID (cohort 6) and an MR tablet at a dose of 300 mg QD (cohort 7) were also evaluated (see Fig. 1b for final dosing scheme).
Dose escalation (cohorts 1–5) or dose selection (cohorts 6–8) was based upon the evaluation of ≥ 7 days of safety and tolerability for all subjects and ≥ 12 h of PK data for at least six subjects receiving PF-06650833. To establish an MTD, dose escalation was to cease when the limit of tolerability was achieved.
Safety assessments included incidence and severity of treatment-emergent AEs (TEAEs) and discontinuation due to TEAEs, incidence of treatment-emergent clinical laboratory abnormalities, and proportion of subjects meeting with pre-defined criteria for potential clinical concern in vital signs and electrocardiogram (ECG) parameters.
The safety analysis set was defined as all subjects who received at least one dose of study treatment, and data were summarized descriptively. The PK concentration analysis set was defined as all enrolled, treated subjects who had at least one concentration in at least one treatment period. The PK parameter analysis set was defined as all enrolled, treated subjects who had at least one of the PK parameters of interest in at least one treatment period. The PD analysis set was defined as all enrolled subjects who received at least one dose of PF-06650833 and had at least one PD parameter. PK/PD data were summarized descriptively.
PK parameters were calculated using non-compartmental analysis of concentration-time data. For study 1 only, data from cohort 1 (period 4 [IR 30 mg] versus period 5 [IR 30 mg + food]) and cohort 3 (period 2 [MR 30 mg] versus period 3 [MR 30 mg + food]) were used to estimate the effect of food intake. Cmax and AUC were calculated for each subject and treatment, with and without food, after which a within-subject difference could be found between fed (high-fat meal) and fasted doses. Analysis of covariance was used to model these within-subject differences and to calculate 95% confidence intervals (CIs) for the differences for each dose (IR 30 mg and MR 30 mg). For study 2 only, the amounts of PF-06650833 in urine and renal clearance were listed and summarized descriptively. As part of the routine safety laboratory monitoring, the presence of any atypical crystals in urine specimens was semi-quantitatively assessed microscopically by typical histopathologic methods and scored as numbers of crystals per high power field (hpf); higher abundance (moderate or many) was defined as ≥ 15/hpf. No formal interim analyses were conducted.

Details of data set [1]: method as in PMID 28498658. Conditions: cited from earlier work.
Data set [2] relates to high-sensitivity C-reactive protein (hsCRP). Description: Study 2 (MAD) serum hsCRP pharmacodynamics. The data set is classed as in vivo, human. An excerpt: The primary objective of study 2 was to determine the safety and tolerability of MAD of orally administered IR and MR formulations of PF-06650833 after a standard meal in healthy adult subjects. The secondary objective was to evaluate the plasma and urine PK profiles of PF-06650833 after repeat dosing. Exploratory objectives were to assess the effects of PF-06650833 on exploratory biomarkers of PD activity, including high-sensitivity C-reactive protein (hsCRP), and to evaluate cholesterol/hydroxycholesterol ratios as an endogenous marker for cytochrome P450 3A (CYP3A) induction or inhibition.
For both studies, samples of blood (and urine in study 2) were taken for evaluation of PK/PD parameters (see Additional file 1: Supplemental Methods). PK samples were obtained at the nominal time relative to dosing (± 10%). Plasma and urine samples were analyzed using validated, sensitive, and specific liquid chromatography tandem mass spectrometric methods (at Pfizer Inc., Groton, CT, USA, for study 1 and at Worldwide Pharmacokinetics, Dynamics and Metabolism, Cambridge, MA, USA, for study 2). The lower limit of quantification for PF-06650833 in plasma was 0.0500 ng/mL. The lower limit of quantification for PF-06650833 in urine was 1.00 ng/mL. Serum samples were also analyzed for hsCRP, and plasma samples were analyzed for 4β-hydroxycholesterol and cholesterol.
The safety analysis set was defined as all subjects who received at least one dose of study treatment, and data were summarized descriptively. The PK concentration analysis set was defined as all enrolled, treated subjects who had at least one concentration in at least one treatment period. […]
35 Plasma samples were analyzed using a validated, sensitive , and specific liquid […]
38 MA, USA for Study 2). The lower limit of quantification (LLOQ) for PF-06650833 in plasma
39 was 0.0500 ng/mL. Between-day assay accuracy values were also calculated (not shown). […]
44 cohorts. Urine samples were also analyzed using a validated, sensitive , and specific LC-MS […]

The mark [3] stands for this setting: IR 100 mg BID, 14 days, fed, 8 evaluable.

Structures are written as SMILES.

As for `CC[C@@H]1[C@H](F)C(=O)N[C@@H]1COc1nccc2cc(C(N)=O)c(OC)cc12` [PF-06650833, 1-{[(2S,3S,4S)-3-Ethyl-4-fluoro-5-oxopyrrolidin-2-yl]methoxy}-7-methoxyisoquinoline-6-carboxamide], the “Infections and infestations: subjects with AE, all causalities (treatment-related)” value in the data set with healthy adult subjects (setting [3]) was 1 (0); in the data set on healthy adult subjects (IR 750 mg BID, 14 days, fed, 8 evaluable) it was 1 (1); with healthy adult subjects (MR 300 mg QD, 14 days, fed, 8 evaluable), 1 (0). Also, in the data set on healthy adult subjects (setting [3]), the “Upper respiratory tract infection: subjects with AE, all causalities (treatment-related)” value is recorded as 1 (0). For the same compound, in the data set on healthy adult subjects (IR 330 mg TID, 14 days, fed, 8 evaluable), the “Nasal congestion: subjects with AE, all causalities (treatment-related)” value was 1 (1). In the data set on healthy adult subjects (all dose groups), the “Serious AEs or deaths” value is listed as “No serious AEs or deaths”. In addition, the “Severity of TEAEs” value in the data set with healthy adult subjects (in vivo) is reported as “mild or moderate”. In the data set with healthy adult subjects (multiple doses up to IR 1000 mg QID, MR 300 mg QD), the Maximum tolerated dose entry was “not established”. Moreover, in data set [1], the Permeability result was “high-permeability compound”. Besides, the “Day by which maximal hsCRP reduction was reached” value in data set [2] (IR ≥ 250 mg BID and MR 300 mg QD) is at most 7 days. Besides, the “Change from baseline in serum hsCRP” value in data set [2] (IR ≥ 250 mg BID and MR 300 mg QD, multiple dosing) is on record as “sustained decrease”. Moreover, the “Reduction from baseline in hsCRP (geometric mean percentage)” value in data set [2] (day 14, highest dose groups) is recorded as 60–70%.
